Test results as given in the supplement of paper PMC10307832.

Assays:
Experiment in all cases: relative viability (nuclei count vs DMSO), 5 days (fraction); higher = more cells survive
LC-2-ad = tested on: LC-2-ad
Outline: (§1)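 A single step with final 0.05% Triton X-100, 1% formaldehyde and 1 ug/ml Hoechst fixed the cells and stained nuclei 5 days after treatment. Lung cancer cell lines in 1536-well plates had been treated by pin tool the day after seeding with one drug alone or a fixed anchor-drug dose plus five library-drug doses (not always all listed) in √10 steps, and nuclei were counted on 4× images. Relative viability is the ratio of nuclei in treated wells to nuclei in vehicle wells, taken as the median of duplicate plates.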

HCC-827 = tested on: HCC-827
Outline: as §1

NCI-H1755 = tested on: NCI-H1755
Outline: as §1

NCI-H596 = tested on: NCI-H596
Outline: as §1

201T = tested on: 201T
Outline: as §1

LU99A = tested on: LU99A
Outline: as §1

RERF-LC-KJ = tested on: RERF-LC-KJ
Outline: as §1

HCC-15 = tested on: HCC-15
Outline: as §1

EKVX = tested on: EKVX
Outline: as §1

NCI-H3122 = tested on: NCI-H3122
Outline: as §1

NCI-H1993 = tested on: NCI-H1993
Outline: as §1

NCI-H1975 = tested on: NCI-H1975
Outline: as §1

HCC-366 = tested on: HCC-366
Outline: as §1

COR-L 105 = tested on: COR-L 105
Outline: as §1

HCC-78 = tested on: HCC-78
Outline: as §1

COR-L23 = tested on: COR-L23
Outline: as §1

BEN = tested on: BEN
Outline: as §1

NCI-H1944 = tested on: NCI-H1944
Outline: as §1

NCI-H1734 = tested on: NCI-H1734
Outline: as §1

SK-LU-1 = tested on: SK-LU-1
Outline: as §1

NCI-H1650 = tested on: NCI-H1650
Outline: as §1

LXF-289 = tested on: LXF-289
Outline: as §1

HARA = tested on: HARA
Outline: as §1

With `Cc1cnc(-c2cnc(NCCNc3ccc(C#N)cn3)nc2-c2ccc(Cl)cc2Cl)[nH]1` + Cc1nc(Nc2ncc(C(=O)Nc3c(C)cccc3Cl)s2)cc(N2CCN(CCO)CC2)n1 [Dasatinib] (partner 0.075 µM) the relative viability (LC-2-ad; first compound 0.08 µM) was 0.662, the relative viability (LC-2-ad; first compound 0.253 µM) was 0.486 and the relative viability (LC-2-ad; first compound 2.53 µM) was 0.471. For the same compound, the relative viability (HCC-827; first compound 0.08 µM) was 0.371, the relative viability (HCC-827; first compound 0.8 µM) was 0.291 and the relative viability (HCC-827; first compound 2.53 µM) was 0.318. It also gave a relative viability (NCI-H1755; first compound 0.08 µM) of 0.435, a relative viability (NCI-H1755; first compound 0.253 µM) of 0.427 and a relative viability (NCI-H1755; first compound 0.8 µM) of 0.398. It also gave a relative viability (NCI-H1755; first compound 2.53 µM) of 0.399, a relative viability (NCI-H596; first compound 0.08 µM) of 0.601 and a relative viability (NCI-H596; first compound 0.253 µM) of 0.656. The relative viability (NCI-H596; first compound 0.8 µM) was 0.624, the relative viability (NCI-H596; first compound 2.53 µM) was 0.607 and the relative viability (201T; first compound 0.08 µM) was 0.621. For the same compound, the relative viability (201T; first compound 0.8 µM) was 0.591, the relative viability (201T; first compound 2.53 µM) was 0.571 and the relative viability (LU99A; first compound 0.08 µM) was 0.507. For the same compound, the relative viability (LU99A; first compound 0.253 µM) was 0.487, the relative viability (LU99A; first compound 0.8 µM) was 0.528 and the relative viability (LU99A; first compound 2.53 µM) was 0.643. For the same compound, the relative viability (RERF-LC-KJ; first compound 0.08 µM) was 0.9, the relative viability (RERF-LC-KJ; first compound 0.253 µM) was 0.765 and the relative viability (RERF-LC-KJ; first compound 0.8 µM) was 0.796. It also gave a relative viability (RERF-LC-KJ; first compound 2.53 µM) of 0.752, a relative viability (HCC-15; first compound 0.08 µM) of 0.687 and a relative viability (HCC-15; first compound 0.253 µM) of 0.509. For the same compound, the relative viability (HCC-15; first compound 0.8 µM) was 0.598, the relative viability (HCC-15; first compound 2.53 µM) was 0.625 and the relative viability (EKVX; first compound 0.08 µM) was 0.608. The relative viability (EKVX; first compound 0.253 µM) was 0.518, the relative viability (EKVX; first compound 0.8 µM) was 0.494 and the relative viability (EKVX; first compound 2.53 µM) was 0.493. The relative viability (NCI-H3122; first compound 0.08 µM) was 0.859, the relative viability (NCI-H3122; first compound 0.8 µM) was 0.714 and the relative viability (NCI-H3122; first compound 2.53 µM) was 0.528. For the same compound, the relative viability (NCI-H1993; first compound 0.08 µM) was 0.58, the relative viability (NCI-H1993; first compound 0.253 µM) was 0.568 and the relative viability (NCI-H1993; first compound 0.8 µM) was 0.499. The relative viability (NCI-H1993; first compound 2.53 µM) was 0.996, the relative viability (NCI-H1975; first compound 0.08 µM) was 0.427 and the relative viability (NCI-H1975; first compound 0.253 µM) was 0.336. The relative viability (NCI-H1975; first compound 0.8 µM) was 0.282, the relative viability (NCI-H1975; first compound 2.53 µM) was 0.241 and the relative viability (HCC-366; first compound 0.08 µM) was 0.67. For the same compound, the relative viability (HCC-366; first compound 0.253 µM) was 0.545, the relative viability (HCC-366; first compound 0.8 µM) was 0.618 and the relative viability (HCC-366; first compound 2.53 µM) was 0.595. It also gave a relative viability (COR-L 105; first compound 0.08 µM) of 0.354, a relative viability (COR-L 105; first compound 0.253 µM) of 0.344 and a relative viability (COR-L 105; first compound 0.8 µM) of 0.282. It also gave a relative viability (COR-L 105; first compound 2.53 µM) of 0.208, a relative viability (HCC-78; first compound 0.08 µM) of 0.434 and a relative viability (HCC-78; first compound 0.253 µM) of 0.364. It also gave a relative viability (HCC-78; first compound 0.8 µM) of 0.41, a relative viability (HCC-78; first compound 2.53 µM) of 0.371 and a relative viability (COR-L23; first compound 0.253 µM) of 0.419. For the same compound, the relative viability (COR-L23; first compound 0.8 µM) was 0.51, the relative viability (COR-L23; first compound 2.53 µM) was 0.5 and the relative viability (BEN; first compound 0.08 µM) was 0.332. It also gave a relative viability (BEN; first compound 0.253 µM) of 0.364, a relative viability (BEN; first compound 0.8 µM) of 0.291 and a relative viability (BEN; first compound 2.53 µM) of 0.351. It also gave a relative viability (NCI-H1944; first compound 0.08 µM) of 0.24, a relative viability (NCI-H1944; first compound 0.8 µM) of 0.251 and a relative viability (NCI-H1944; first compound 2.53 µM) of 0.316. The relative viability (NCI-H1734; first compound 0.08 µM) was 0.461, the relative viability (NCI-H1734; first compound 0.253 µM) was 0.417 and the relative viability (NCI-H1734; first compound 0.8 µM) was 0.467. It also gave a relative viability (NCI-H1734; first compound 2.53 µM) of 0.415, a relative viability (SK-LU-1; first compound 0.08 µM) of 0.185 and a relative viability (SK-LU-1; first compound 0.253 µM) of 0.185. It also gave a relative viability (SK-LU-1; first compound 0.8 µM) of 0.18, a relative viability (SK-LU-1; first compound 2.53 µM) of 0.226 and a relative viability (NCI-H1650; first compound 0.08 µM) of 0.31. The relative viability (NCI-H1650; first compound 0.253 µM) was 0.345, the relative viability (NCI-H1650; first compound 0.8 µM) was 0.295 and the relative viability (NCI-H1650; first compound 2.53 µM) was 0.312. It also gave a relative viability (LXF-289; first compound 0.08 µM) of 0.249, a relative viability (LXF-289; first compound 0.253 µM) of 0.204 and a relative viability (LXF-289; first compound 0.8 µM) of 0.189. It also gave a relative viability (LXF-289; first compound 2.53 µM) of 0.139, a relative viability (HARA; first compound 0.08 µM) of 0.223 and a relative viability (HARA; first compound 0.253 µM) of 0.259. The relative viability (HARA; first compound 0.8 µM) was 0.343 and the relative viability (HARA; first compound 2.53 µM) was 0.244.
